# Test results published in the supplement of paper PMC10307832.
# How the values were obtained:
# Assay in all cases: relative viability (nuclei count vs DMSO), 5 days (fraction); higher = more cells survive
# NCI-H1792 = tested on: NCI-H1792
# Summary of the method: (§1)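 Values are medians from duplicate plates. Each reflects relative viability, defined as the nuclei count of treated wells over that of vehicle wells. Lung cancer cell lines in 1536-well plates were pin-tool dosed one day after seeding with one drug alone or with a fixed anchor-drug dose plus five library-drug doses (not always all listed) in √10 steps, then fixed, stained and imaged at 4× after 5 days.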
# LXF-289 = tested on: LXF-289
# Summary of the method: as §1
# NCI-H1734 = tested on: NCI-H1734
# Summary of the method: as §1
# NCI-H1755 = tested on: NCI-H1755
# Summary of the method: as §1
# HOP-62 = tested on: HOP-62
# Summary of the method: as §1
# NCI-H2347 = tested on: NCI-H2347
# Summary of the method: as §1
# NCI-H460 = tested on: NCI-H460
# Summary of the method: as §1
# LC-2-ad = tested on: LC-2-ad
# Summary of the method: as §1
# RERF-LC-KJ = tested on: RERF-LC-KJ
# Summary of the method: as §1
# SK-LU-1 = tested on: SK-LU-1
# Summary of the method: as §1
# NCI-H647 = tested on: NCI-H647
# Summary of the method: as §1
# NCI-H358 = tested on: NCI-H358
# Summary of the method: as §1
# NCI-H2228 = tested on: NCI-H2228
# Summary of the method: as §1
# HCC-78 = tested on: HCC-78
# Summary of the method: as §1
# A-427 = tested on: A-427
# Summary of the method: as §1
# NCI-H522 = tested on: NCI-H522
# Summary of the method: as §1
# NCI-H2126 = tested on: NCI-H2126
# Summary of the method: as §1
# HCC-15 = tested on: HCC-15
# Summary of the method: as §1
# NCI-H1915 = tested on: NCI-H1915
# Summary of the method: as §1
# PC-3 [JPC-3] = tested on: PC-3 [JPC-3]
# Summary of the method: as §1
# SW 1573 = tested on: SW 1573
# Summary of the method: as §1
# NCI-H2342 = tested on: NCI-H2342
# Summary of the method: as §1
# LOU-NH91 = tested on: LOU-NH91
# Summary of the method: as §1
# NCI-H1975 = tested on: NCI-H1975
# Summary of the method: as §1
smiles,measurement,setting,value
Clc1ccc(Nc2nnc(Cc3ccncc3)c3ccccc23)cc1 [Vatalanib] + COc1cccc2cc(-c3nc([C@H]4CC[C@H](C(=O)O)CC4)n4ncnc(N)c34)[nH]c12 [OSI-027] (partner 0.5 µM),relative viability,NCI-H1792; first compound 0.04 µM,0.678
same,relative viability,NCI-H1792; first compound 0.1265 µM,0.68
same,relative viability,NCI-H1792; first compound 0.4 µM,0.704
same,relative viability,NCI-H1792; first compound 1.265 µM,0.707
same,relative viability,NCI-H1792; first compound 4 µM,0.631
same,relative viability,LXF-289; first compound 0.04 µM,0.824
same,relative viability,LXF-289; first compound 0.1265 µM,0.802
same,relative viability,LXF-289; first compound 0.4 µM,0.858
same,relative viability,LXF-289; first compound 1.265 µM,0.806
same,relative viability,LXF-289; first compound 4 µM,0.761
same,relative viability,NCI-H1734; first compound 0.04 µM,0.675
same,relative viability,NCI-H1734; first compound 0.1265 µM,0.463
same,relative viability,NCI-H1734; first compound 0.4 µM,0.697
same,relative viability,NCI-H1734; first compound 1.265 µM,0.563
same,relative viability,NCI-H1734; first compound 4 µM,0.589
same,relative viability,NCI-H1755; first compound 0.04 µM,0.82
same,relative viability,NCI-H1755; first compound 0.1265 µM,0.747
same,relative viability,NCI-H1755; first compound 0.4 µM,0.705
same,relative viability,NCI-H1755; first compound 1.265 µM,0.654
same,relative viability,NCI-H1755; first compound 4 µM,0.634
same,relative viability,HOP-62; first compound 0.04 µM,0.906
same,relative viability,HOP-62; first compound 0.1265 µM,0.804
same,relative viability,HOP-62; first compound 0.4 µM,0.833
same,relative viability,HOP-62; first compound 1.265 µM,0.741
same,relative viability,HOP-62; first compound 4 µM,0.875
same,relative viability,NCI-H2347; first compound 0.04 µM,0.397
same,relative viability,NCI-H2347; first compound 0.1265 µM,0.391
same,relative viability,NCI-H2347; first compound 0.4 µM,0.488
same,relative viability,NCI-H2347; first compound 1.265 µM,0.464
same,relative viability,NCI-H2347; first compound 4 µM,0.364
same,relative viability,NCI-H460; first compound 0.04 µM,0.713
same,relative viability,NCI-H460; first compound 0.1265 µM,0.703
same,relative viability,NCI-H460; first compound 0.4 µM,0.655
same,relative viability,NCI-H460; first compound 1.265 µM,0.65
same,relative viability,NCI-H460; first compound 4 µM,0.624
same,relative viability,LC-2-ad; first compound 0.04 µM,0.935
same,relative viability,LC-2-ad; first compound 0.1265 µM,0.865
same,relative viability,LC-2-ad; first compound 1.265 µM,0.785
same,relative viability,LC-2-ad; first compound 4 µM,0.826
same,relative viability,RERF-LC-KJ; first compound 0.04 µM,0.657
same,relative viability,RERF-LC-KJ; first compound 0.1265 µM,0.591
same,relative viability,RERF-LC-KJ; first compound 0.4 µM,0.588
same,relative viability,RERF-LC-KJ; first compound 1.265 µM,0.549
same,relative viability,RERF-LC-KJ; first compound 4 µM,0.564
same,relative viability,SK-LU-1; first compound 0.04 µM,0.365
same,relative viability,SK-LU-1; first compound 0.1265 µM,0.346
same,relative viability,SK-LU-1; first compound 0.4 µM,0.395
same,relative viability,SK-LU-1; first compound 1.265 µM,0.357
same,relative viability,SK-LU-1; first compound 4 µM,0.348
same,relative viability,NCI-H647; first compound 0.04 µM,0.654
same,relative viability,NCI-H647; first compound 0.1265 µM,0.597
same,relative viability,NCI-H647; first compound 0.4 µM,0.634
same,relative viability,NCI-H647; first compound 1.265 µM,0.568
same,relative viability,NCI-H647; first compound 4 µM,0.671
same,relative viability,NCI-H358; first compound 0.04 µM,0.811
same,relative viability,NCI-H358; first compound 0.1265 µM,0.678
same,relative viability,NCI-H358; first compound 0.4 µM,0.747
same,relative viability,NCI-H358; first compound 1.265 µM,0.684
same,relative viability,NCI-H358; first compound 4 µM,0.698
same,relative viability,NCI-H2228; first compound 0.04 µM,0.568
same,relative viability,NCI-H2228; first compound 0.1265 µM,0.566
same,relative viability,NCI-H2228; first compound 0.4 µM,0.604
same,relative viability,NCI-H2228; first compound 1.265 µM,0.589
same,relative viability,NCI-H2228; first compound 4 µM,0.504
same,relative viability,HCC-78; first compound 0.04 µM,0.318
same,relative viability,HCC-78; first compound 0.1265 µM,0.37
same,relative viability,HCC-78; first compound 0.4 µM,0.381
same,relative viability,HCC-78; first compound 1.265 µM,0.306
same,relative viability,HCC-78; first compound 4 µM,0.351
same,relative viability,A-427; first compound 0.04 µM,0.504
same,relative viability,A-427; first compound 0.1265 µM,0.453
same,relative viability,A-427; first compound 0.4 µM,0.494
same,relative viability,A-427; first compound 1.265 µM,0.464
same,relative viability,A-427; first compound 4 µM,0.486
same,relative viability,NCI-H522; first compound 0.04 µM,0.703
same,relative viability,NCI-H522; first compound 0.1265 µM,0.677
same,relative viability,NCI-H522; first compound 0.4 µM,0.73
same,relative viability,NCI-H522; first compound 1.265 µM,0.714
same,relative viability,NCI-H522; first compound 4 µM,0.796
same,relative viability,NCI-H2126; first compound 0.04 µM,0.692
same,relative viability,NCI-H2126; first compound 0.1265 µM,0.693
same,relative viability,NCI-H2126; first compound 0.4 µM,0.797
same,relative viability,NCI-H2126; first compound 1.265 µM,0.62
same,relative viability,NCI-H2126; first compound 4 µM,0.625
same,relative viability,HCC-15; first compound 0.04 µM,0.714
same,relative viability,HCC-15; first compound 0.1265 µM,0.724
same,relative viability,HCC-15; first compound 0.4 µM,0.535
same,relative viability,HCC-15; first compound 1.265 µM,0.582
same,relative viability,HCC-15; first compound 4 µM,0.523
same,relative viability,NCI-H1915; first compound 0.04 µM,0.673
same,relative viability,NCI-H1915; first compound 0.1265 µM,0.636
same,relative viability,NCI-H1915; first compound 0.4 µM,0.632
same,relative viability,NCI-H1915; first compound 1.265 µM,0.649
same,relative viability,NCI-H1915; first compound 4 µM,0.61
same,relative viability,PC-3 [JPC-3]; first compound 0.04 µM,0.752
same,relative viability,PC-3 [JPC-3]; first compound 0.1265 µM,0.698
same,relative viability,PC-3 [JPC-3]; first compound 0.4 µM,0.771
same,relative viability,PC-3 [JPC-3]; first compound 1.265 µM,0.733
same,relative viability,PC-3 [JPC-3]; first compound 4 µM,0.672
same,relative viability,SW 1573; first compound 0.04 µM,0.714
same,relative viability,SW 1573; first compound 0.1265 µM,0.574
same,relative viability,SW 1573; first compound 0.4 µM,0.666
same,relative viability,SW 1573; first compound 1.265 µM,0.585
same,relative viability,SW 1573; first compound 4 µM,0.59
same,relative viability,NCI-H2342; first compound 0.04 µM,0.691
same,relative viability,NCI-H2342; first compound 0.1265 µM,0.556
same,relative viability,NCI-H2342; first compound 0.4 µM,0.616
same,relative viability,NCI-H2342; first compound 1.265 µM,0.592
same,relative viability,NCI-H2342; first compound 4 µM,0.601
same,relative viability,LOU-NH91; first compound 0.04 µM,0.712
same,relative viability,LOU-NH91; first compound 0.1265 µM,0.738
same,relative viability,LOU-NH91; first compound 1.265 µM,0.728
same,relative viability,LOU-NH91; first compound 4 µM,0.625
same,relative viability,NCI-H1975; first compound 0.04 µM,0.778
same,relative viability,NCI-H1975; first compound 0.1265 µM,0.739
same,relative viability,NCI-H1975; first compound 0.4 µM,0.688
same,relative viability,NCI-H1975; first compound 1.265 µM,0.568
same,relative viability,NCI-H1975; first compound 4 µM,0.673
